Like-named read-outs stand apart in the source and are kept apart here. Non-standard residues stand in square brackets, D forms with d. Residues, ends and D or L forms follow the SMILES beside them. Dip = N[C@H](C(=O)O)C(c1ccccc1)c1ccccc1
Legend:
human red blood cells = assay: Haemolytic activity in vitro; type: cell-based; details: for Mean cell death (%): 1 h 37° C., 1% RBC
Experimental: Freshly collected human blood was centrifuged at 1500 rpm for 10 minutes in order to isolate the red blood cells. The red blood cells (RBC) were washed three times with PBS [35 mM phosphate buffer with 150 mM NaCl, pH 7.4] by centrifugation at 1500 rpm for 10 minutes, and adjusted to 10% haematocrit with PBS. LTX-315 solutions were added to give a final concentration range of the peptide from 1200 μg/ml to 1 μg/ml and an RBC concentration of 1%. The resulting suspension was incubated with agitation for one hour at 37° C. After incubation the suspension was centrifuged at 4000 rpm for 5 minutes, and the released haemoglobin were monitored by measuring the absorbance of the supernatant at 405 nm. PBS was used as negative control and assumed to cause no haemolysis. 0.1% Triton was used as positive control and assumed to cause complete haemolysis.
Released haemoglobin was monitored by measuring the absorbance of the supernatant at 405 nm, and percent haemolysis was calculated by the equation: % Haemolysis=[(A405 LTX-315−A405 PBS)/(A405 0.1% Triton X-100−A405 PBS)]×100
LTX-315 concentration corresponding to 50% haemolysis (EC50) was determined from a dose-response curve.

[1] = test system: murine A20 B cell lymphoma cells; assay: Re-challenge with A20 B-cell lymphoma in mice with complete regression; type: in vivo, Balb-c mice
Experimental: (§1) Methods: Female Balb-c mice (n=4), previously treated with LTX-315, 1 mg) or (n=9); previously treated with LTX-315 0.5 or 1 mg) were re-inoculated (s.c. in the abdominal area) with either murine A20 B cell lymphoma cells or CT26WT colon carcinoma cells (5 million) respectively 6 weeks following initial treatment with LTX-315. Tumour growth was monitored for up to 36 days following re-inoculation.

[2] = test system: CT26WT colon carcinoma cells; assay: Re-challenge with CT26WT colon carcinoma in mice with complete regression; type: in vivo, Balb-c mice; details: of 9 mice previously treated with 0.5 or 1 mg
Experimental: as §1

human A547 cells = assay: TEM, A547 cells; type: cell-based; details: 10 μg/ml, 60 minutes
A375 cells [3] = assay: Confocal microscopy with fluorescence-labeled peptide (internalization); type: cell-based, human; details: 3 μM and 1.5 μM, 30-60 min
Experimental: Subconfluential A375 cells were seeded at 8,000 cells/well as above, and transfected on the second day using the Lipofectamine LTX with Plus transfection reagents (Invitrogen) following the manufacturer's protocol. The mitochondria were labeled using the pDsRed2-Mito, and the nucleus was labeled using the GFP-Histon2B plasmid (Imaging Platform, University of Tromsø). A day after transfection, cells were washed twice with serum-free RPMI, and treated at different concentration and incubation periods with LTX-315 Pacific Blue or LTX-328 Pacific Blue. […] Control cells were treated with unlabeled LTX-315 and also with serum-free RPMI only. After incubation, cells were fixed with 4% paraformaldehyde in PBS, and the wells were covered with Prolong Gold antifade (Invitrogen). Cells were further analyzed by use of a Leica TCS SP5 confocal microscope, with a […] objective. Pacific Blue, GFP and Ds Red were excited using UV, with 488 and 561 lasers, and fluorescence channels were sequentially detected using the following band passes: UV: 420-480 nm (with attenuation), 488: 501-550 nm and 561: 576-676 nm.

A375 cells [4] = assay: Release of cytochrome-C (ELISA); type: cell-based, human; details: 35 μM, 5, 15, 45 min
Experimental: A375 cells were seeded as with HMGB1 studies, and treated with 35 μM for different time points (5, 15, 45). Supernatants were collected and concentrated as with HMGB1 studies, and samples from the supernatants were analyzed using a 4.5 hour solid form Cytochrome C—Elisa kit (R&D Systems, USA, #DCTCO) following the manufacturer's description. Shortly thereafter, a 50% diluted sample was analyzed and the optical density was determined using a microplate reader set at 450 nm, and this reading was then subtracted from the reading at 540 nm. A standard curve was generated for each set of samples assayed. Samples were run in four parallels, and the cytochrome-c released into the supernatant was expressed as a fold over the level of cytochrome-c in the supernatant of untreated cells.

A375 cells [5] = assay: MTT viability assay, A375 melanoma; type: cell-based, human; details: read-out: IC-50, melanoma cells, MTT
Experimental: The cytotoxic effect of LTX-315 was investigated using the colorimetric MTT viability assay as described in Eliassen et al. (2002), 22(5): pp 2703-10. The A375 cells were seeded at a concentration of 1×10^5 cells/ml in a volume of 0.1 ml in 96-well plates, and allowed to adhere in a complete growth media overnight. The media was then removed and the cells were washed twice in serum-free, RPMI-1650 media, before adding LTX-315 dissolved in serum-free RPMI at concentrations ranging from 2.5-300 μg/ml, and incubated for 5-180 minutes. Cells treated with a serum-free RPMI were used as negative control cells, while cells treated with 1% Triton X-100 in serum-free media were used as a positive control. The final results were calculated using the mean of three experiments, each with triplicate wells.

## NCCCC[C@H](NC(=O)[C@@H](NC(=O)[C@H](Cc1c[nH]c2ccccc12)NC(=O)[C@H](CCCCN)NC(=O)[C@H](CCCCN)NC(=O)[C@H](Cc1c[nH]c2ccccc12)NC(=O)[C@H](Cc1c[nH]c2ccccc12)NC(=O)[C@H](CCCCN)NC(=O)[C@@H](N)CCCCN)C(c1ccccc1)c1ccccc1)C(N)=O [LTX-315, K-K-W-W-K-K-W-Dip-K-NH2] (H-KKWWKKW[Dip]K-NH2)
Human red blood cells; LTX-315 1 μg/ml
  Mean cell death (%): 0.0%
Human red blood cells; LTX-315 10 μg/ml
  Mean cell death (%): 0.6%
Human red blood cells; LTX-315 50 μg/ml
  Mean cell death (%): 1.6%
Human red blood cells; LTX-315 100 μg/ml
  Mean cell death (%): 3.6%
Human red blood cells; LTX-315 500 μg/ml
  Mean cell death (%): 20.4%
Human red blood cells; LTX-315 1000 μg/ml
  Mean cell death (%): 38.2%
Human red blood cells; LTX-315 1200 μg/ml
  Mean cell death (%): 37.7%
Human red blood cells; human red blood cells
  Mean EC50 (50% haemolysis): greater than 1200 μg/ml
Human red blood cells; human red blood cells, read-out: Mean EC50 (50% haemolysis)
  EC50: > 833 µM
Human red blood cells; red cells of human
  IC50: ≥ 833 µM
[1]; all 4 mice previously treated with LTX-315 1 mg, re-inoculated 6 weeks after treatment, P<0.006
  Tumour growth after re-inoculation versus control animals: Significant inhibition
[1]; of 4 mice previously treated with 1 mg
  Mice with complete tumour regression after re-inoculation: 3
[1]; of 4 mice, 3 weeks later
  Animals with relapse after re-inoculation: 1
[2]
  Animals with complete regression after re-inoculation: 2
[2]; P<0.01 versus control
  Mice with inhibition of tumour growth after re-inoculation: 7
Human A547 cells
  Effect on mitochondrial membrane (TEM): disintegration of the mitochondrial membrane
A375 cells [3]
  Internalization of Pacific Blue-labeled peptide: rapidly penetrated the plasma membrane
A375 cells [4]
  Cytochrome-C in the supernatant compared to untreated control cells: three times more
A375 cells [5]; 90 minutes of incubation
  IC50: 14 µM
A375 cells [5]; five minutes of incubation
  IC50: 30 µM
